Experiments:
[1] = test system: IL-23; assay: In vitro IL-23 assay: IL-23 (p19/p40) ELISA of supernatant from IFNγ-primed THP-1 cells stimulated with SAC; type: cell-based, human; design: key: “+” indicates an increase in production; “−” indicates a decrease in production; details: effect on expression level of IL-23 in THP-1 cells primed with IFNγ and stimulated with 0.01% SAC; test compound 0.01 μM to 20 μM
Experimental: (§1) Exponentially growing THP-1 cells were plated (100K/well in 100 μL) in standard RPMI media (1% P/S+10% FBS) containing 50 ng/mL IFNγ (1000 U/mL) onto a white clear bottom 96 well plate and leave the cells in 37° C. incubator for 24 h.
(§2) After 24 h incubation, 100 μL of RPMI media containing 2× concentrated test compound per well was added to the above cell-culture media (final concentration of test compound was from 0.01 μM to 20 μM). The plates were pre-incubated for 1 h at 37° C. before being stimulated with SAC.
(§3) After 1 h compound pre-incubation, 10 μL per well of 20× concentrated SAC solution in RPMI media was added to give a final concentration of 0.01%, the plates were shaken and incubated at 37° C. for an additional 18 h.
(§4) 155 μL of the supernatant was harvested from each well and to the remaining 50 μL/well of the cell culture plate was added 50 μL of CELL TITER GLO® reagent. The plates were incubated for 1-2 minutes on a shaker and read for luminescence intensity to determine the compound cytotoxicity.
(§5) The cell culture supernatant collected above was used to carry out IL23 ELISA (65 μL-Supernatant) and IL10 ELISA (90 μL-Supernatant) as described below.
B. Human IL-23 (p19/p40) ELISA Protocol (e-Biosciences)
Cell Culture Supernatant (65 μL from THP-1 cells primed with IFNγ (50 ng/mL-1000 U/mL) and stimulated with 0.01% SAC)
To 10.5 mL PBS was added 50 μL of anti-IL23 (p19) capture antibody (2.5 μg/mL), mixed well and 100 μL of the coating solution was added to each well of the 96 well white plates from Pierce, cover and incubate overnight at 4° C.
The anti-IL23 (p19)-antibody-coated plates were washed 2× using TBST (use plate washer) and the plates were blocked using 200 μL of 0.5% Casein for 1.5-2 h at room temperature with shaking.
The plates were washed 2× using TBST and the supernatant (65 μL/well) was transferred to the above pre-blocked/IL23(p19)-antibody-coated 96 well plate and incubated at RT for 1.5 h with shaking.
The plate was washed 4× using TBST (plate washer) and 100 μL/well of detection antibody solution was added. The detection antibody solution was prepared from 2 μL of biotin labeled anti-IL-12 (p40/p70) antibody in 11 mL 1% BSA/PBS solution (1-5000 dilution). The plates were incubated for 1 hour with shaking at RT.
(§6) Again, the plate was washed 4× with TBST and 100 μL of HRP labeled Streptavidin (R&D Systems) solution (10 μL/10 mL 1% BSA solution) was added and incubated at RT for another 45 min with shaking.
After 45 min, the plate was washed with TBST 4× and 100 μL/well Super Signal ELISA Pico Chemiluminescent Substrate from Pierce (3.5 mL A+3.5 mL B+3.5 mL MQ water) was added, the plate was shaken for 1-2 minutes then read on a plate reader to quantify the amount of IL-23 secreted by the cells.

[2] = test system: IL-10; assay: In vitro IL-10 assay: IL-10 ELISA of supernatant from IFNγ-primed THP-1 cells stimulated with SAC; type: cell-based, human; design: key: “+” indicates an increase in production; “−” indicates a decrease in production; details: effect on expression level of IL-10 in THP-1 cells primed with IFNγ and stimulated with 0.01% SAC; test compound 0.01 μM to 20 μM
Experimental: as §1, §2, §3, §4, §5
C. Human IL-10 ELISA Protocol (e-Biosciences)
Cell Culture Supernatant (90 μL from THP-1 cells primed with IFNγ (50 ng/mL-1000 U/mL) and stimulated with 0.01% SAC)
To 10.5 mL PBS was added 50 μL of anti-IL10 capture antibody (2.5 μg/mL), mixed well and 100 μL of the coating solution was added to each well of the 96 well white plates from Pierce. The plates were covered and incubated overnight at 4° C.
The anti-IL10 antibody-coated plates were washed 2× using TBST (use plate washer) and blocked the using 200 μL of 0.5% Casein for 1.5-2 h at RT with shaking.
The plates were washed 2× using TBST and the supernatant (100 μL/well) was transferred to the above pre-blocked/IL10-antibody-coated 96 well plate and incubated at RT for 1.5 h with shaking.
The plate was washed 4× using TBST (plate washer) and 100 μL/well detection antibody solution prepared from 2 μL of biotin labeled anti-IL-10 antibody in 11 mL 1% BSA/PBS solution (1-5000 dilution) was added. The plates were incubated for 1 hour with shaking at RT.
as §6
After 45 min, the plate was washed with TBST 4× and 100 uL/well Super Signal ELISA Pico Chemiluminescent Substrate from Pierce (3.5 mL A+3.5 mL B+3.5 mL MQ water) was added, the plate was shaken for 1-2 minutes then read on a plate reader to quantify the amount of IL-10 secreted by the cells.

SMILES	IL-23 [1]	IL-10 [2]
CN1C(C)(C)CC(Nc2nc(Nc3ccc(N4CCN(S(C)(=O)=O)CC4)c(C(F)(F)F)c3)ncc2F)CC1(C)C [Compound 1]	−	
CN1CCN(c2ccc(Nc3ncc(F)c(NC4CC(C)(C)N(C)C(C)(C)C4)n3)cc2C(F)(F)F)CC1 [Compound 2]	−	−
CN1C(C)(C)CC(Nc2nc(Nc3ccc(N4CCN(S(C)(=O)=O)CC4)c(C(F)(F)F)c3)ncc2F)C1(C)C (centres unmarked) [Compound 3]	−	+
CN1CCN(c2ccc(Nc3ncc(F)c(NC4CC(C)(C)N(C)C4(C)C)n3)cc2C(F)(F)F)CC1 (centres unmarked) [Compound 4]	−	−
CN1C(C)(C)CC(Nc2nc(Nc3ccc(N4CCN(S(C)(=O)=O)CC4)c(Cl)c3)ncc2F)CC1(C)C [Compound 5]		+
CN1CCN(c2ccc(Nc3ncc(F)c(NC4CC(C)(C)N(C)C(C)(C)C4)n3)cc2Cl)CC1 [Compound 6]		+
CN1C(C)(C)CC(CNc2nc(Nc3ccc(N4CCN(S(C)(=O)=O)CC4)c(C(F)(F)F)c3)ncc2F)C1(C)C (centres unmarked) [Compound 7]	−	+
CN1CCN(S(=O)(=O)c2ccc(Nc3ncc(F)c(NC4CC(C)(C)N(C)C(C)(C)C4)n3)cc2Cl)CC1 [Compound 8]	−	+
CN1C(C)(C)CC(Nc2nc(Nc3ccc(S(=O)(=O)N4CCNCC4)c(Cl)c3)ncc2F)CC1(C)C [Compound 9]		+
CN1C(C)(C)CC(Nc2nc(Nc3ccc(N4CCN(S(C)(=O)=O)CC4)c(C(F)(F)F)c3)ncc2F)CC1(C)C [Compound 10]		+
CN1C(C)(C)CC(Nc2nc(Nc3ccc(N4CCN(S(=O)(=O)C5CC5)CC4)c(C(F)(F)F)c3)ncc2F)CC1(C)C [Compound 11]		+
CN1C(C)(C)CC(Nc2nc(Nc3ccc(N4CCN(S(C)(=O)=O)CC4)c(C#N)c3)ncc2F)CC1(C)C [Compound 12]		+
CN1C(C)(C)CC(Nc2nc(Nc3ccc(N4CCN(S(C)(=O)=O)CC4)c(OC(F)F)c3)ncc2F)CC1(C)C [Compound 13]		+
COc1ccc(Nc2ncc(F)c(NC3CC(C)(C)N(C)C(C)(C)C3)n2)cc1OC(F)F [Compound 14]		+
CN1C(C)(C)CC(Nc2nc(Nc3ccc(N4CCN(S(=O)(=O)C5CC5)CC4)c(Cl)c3)ncc2F)CC1(C)C [Compound 15]		+
CCN1C(=O)C(F)(F)Oc2cc(Nc3ncc(F)c(NC4CC(C)(C)N(C)C(C)(C)C4)n3)ccc21 [Compound 16]		+
CN1CCN(c2ccc(Nc3ncc(F)c(NC4CC(C)(C)N(C)C(C)(C)C4)n3)cc2Cl)CC1 [Compound 17]		−
CCOC(=O)c1cnc(Nc2ccc(N3CCN(S(C)(=O)=O)CC3)c(C(F)(F)F)c2)nc1NC1CC(C)(C)N(C)C(C)(C)C1 [Compound 18]	−	+
CCOC(=O)c1cnc(Nc2ccc(N3CCN(S(C)(=O)=O)CC3)c(Cl)c2)nc1NC1CC(C)(C)N(C)C(C)(C)C1 [Compound 19]	−	+
CN1C(C)(C)CC(Nc2nc(Nc3ccc(N4CCN(S(C)(=O)=O)CC4)c(C(F)(F)F)c3)ncc2[N+](=O)[O-])CC1(C)C [Compound 20]		+
CN1C(C)(C)CC(Nc2nc(Nc3ccc(N4CCN(S(C)(=O)=O)CC4)c(Cl)c3)ncc2[N+](=O)[O-])CC1(C)C [Compound 21]		+
CN1C(C)(C)CC(Nc2nc(Nc3ccc(N4CCN(S(C)(=O)=O)CC4)c(C(F)(F)F)c3)ncc2C#N)CC1(C)C [Compound 22]		+
CN1C(C)(C)CC(Nc2nc(Nc3ccc(N4CCN(S(C)(=O)=O)CC4)c(Cl)c3)ncc2C#N)CC1(C)C [Compound 23]	−	+
CN1C(C)(C)CC(Nc2nc(Nc3ccc(N4CCN(S(C)(=O)=O)CC4)c(C#N)c3)ncc2C#N)CC1(C)C [Compound 24]		+
CN1C(C)(C)CC(Nc2nc(Nc3ccc(N4CCN(S(C)(=O)=O)CC4)c(C(F)(F)F)c3)ncc2C(F)(F)F)CC1(C)C [Compound 25]	−	+
CN1C(C)(C)CC(Nc2nc(Nc3ccc(N4CCN(S(C)(=O)=O)CC4)c(Cl)c3)ncc2C(F)(F)F)CC1(C)C [Compound 26]		+

From US8575165B2, “Methods for treating inflammatory disorders using 2,4-pyrimidinediamine compounds” (Rigel Pharmaceuticals, Inc., priority 2009, dated 2013)
